Assay [1] deals with Casein kinase II subunit alpha' (Homo sapiens) (UniProt P19784). Kind of assay: Selectivity interaction (ProQinase) EUB0000171b CSNK2A2.
The target of assay [2] is Tyrosine-protein kinase FRK (Homo sapiens) (UniProt P42685). Kind of assay: Selectivity interaction (KinomeScan (DiscoverX)) EUB0001079a FRK. To be noted: at 1 µM.
Assay [3] addresses Serine/threonine-protein kinase 35 (Homo sapiens) (UniProt Q8TDR2). As to the kind of experiment: Selectivity interaction (KinomeScan (DiscoverX)) EUB0000092b STK35. The following applies: at 10 µM.
The target of assay [4] is Mitotic checkpoint serine/threonine-protein kinase BUB1 (Homo sapiens, UniProt O43683). Kind of assay: Selectivity interaction (KinomeScan (DiscoverX)) EUB0001049a BUB1. The following applies: at 1 µM.
Assay [5] addresses T1, Serine/threonine-protein kinase RIO1 (Homo sapiens) (UniProt Q9BRS2).
T1 sequence (whole entry): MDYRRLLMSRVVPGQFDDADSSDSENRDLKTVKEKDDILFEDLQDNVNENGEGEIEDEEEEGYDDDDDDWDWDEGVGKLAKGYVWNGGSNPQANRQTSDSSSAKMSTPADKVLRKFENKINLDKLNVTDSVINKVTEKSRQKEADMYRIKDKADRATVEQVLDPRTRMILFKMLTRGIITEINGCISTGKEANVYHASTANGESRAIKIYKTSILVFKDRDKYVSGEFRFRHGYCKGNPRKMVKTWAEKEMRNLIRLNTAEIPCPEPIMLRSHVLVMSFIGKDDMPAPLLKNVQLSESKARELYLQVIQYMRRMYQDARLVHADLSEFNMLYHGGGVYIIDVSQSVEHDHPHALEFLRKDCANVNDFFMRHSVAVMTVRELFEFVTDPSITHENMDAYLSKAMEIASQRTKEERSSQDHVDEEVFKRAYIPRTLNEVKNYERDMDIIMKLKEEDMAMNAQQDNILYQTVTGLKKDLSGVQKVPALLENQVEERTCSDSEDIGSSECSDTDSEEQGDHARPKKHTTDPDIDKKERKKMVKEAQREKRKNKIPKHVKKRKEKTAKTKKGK
Kind of assay: Selectivity interaction (KinomeScan (DiscoverX)) EUB0000666a RIOK1. To be noted: at 10 µM.

Assay [6] addresses Protein arginine N-methyltransferase 1 (Homo sapiens, UniProt Q99873). To be noted: at 10 µM.
Assay [7] addresses Mitogen-activated protein kinase kinase kinase 20 (Homo sapiens) (UniProt Q9NYL2). As to the kind of experiment: Selectivity interaction (KinomeScan (DiscoverX)) EUB0000229b MAP3K20. To be noted: at 10 µM.
Assay [8] addresses T2, Ephrin type-B receptor 2 (Homo sapiens) (UniProt P29323).
T2 sequence (whole entry): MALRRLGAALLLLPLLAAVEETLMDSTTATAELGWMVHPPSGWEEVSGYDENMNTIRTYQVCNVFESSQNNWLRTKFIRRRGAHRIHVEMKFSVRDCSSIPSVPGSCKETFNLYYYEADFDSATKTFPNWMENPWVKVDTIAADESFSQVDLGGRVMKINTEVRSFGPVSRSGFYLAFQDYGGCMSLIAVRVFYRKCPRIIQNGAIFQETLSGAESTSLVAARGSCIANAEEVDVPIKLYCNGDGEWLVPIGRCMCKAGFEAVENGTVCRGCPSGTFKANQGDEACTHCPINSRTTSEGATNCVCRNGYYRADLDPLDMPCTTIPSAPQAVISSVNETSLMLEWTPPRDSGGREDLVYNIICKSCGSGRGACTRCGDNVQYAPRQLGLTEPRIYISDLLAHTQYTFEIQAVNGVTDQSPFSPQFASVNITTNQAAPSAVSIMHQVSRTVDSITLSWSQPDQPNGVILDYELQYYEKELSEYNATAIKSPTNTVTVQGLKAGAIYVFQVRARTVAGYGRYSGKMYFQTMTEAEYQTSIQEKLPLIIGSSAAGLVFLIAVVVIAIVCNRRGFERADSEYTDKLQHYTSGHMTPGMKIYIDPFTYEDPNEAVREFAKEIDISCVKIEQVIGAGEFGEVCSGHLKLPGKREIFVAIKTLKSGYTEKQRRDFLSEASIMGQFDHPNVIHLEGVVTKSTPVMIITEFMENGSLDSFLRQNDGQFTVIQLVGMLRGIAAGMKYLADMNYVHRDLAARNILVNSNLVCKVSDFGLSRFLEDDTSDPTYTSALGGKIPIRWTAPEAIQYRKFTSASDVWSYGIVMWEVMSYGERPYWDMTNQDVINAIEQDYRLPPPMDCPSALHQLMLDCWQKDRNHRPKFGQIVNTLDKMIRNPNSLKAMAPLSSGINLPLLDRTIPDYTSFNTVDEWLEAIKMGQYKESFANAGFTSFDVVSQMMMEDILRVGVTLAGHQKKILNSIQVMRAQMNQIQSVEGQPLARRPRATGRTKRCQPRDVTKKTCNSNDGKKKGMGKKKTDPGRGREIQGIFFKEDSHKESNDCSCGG
As to the kind of experiment: Selectivity interaction (KinomeScan (DiscoverX)) EUB0001619a EPHB2. To be noted: at 1 µM.

Assay [9] has as its target T3, Serine/threonine-protein kinase 3 (Homo sapiens) (UniProt Q13188).
T3 sequence (whole entry): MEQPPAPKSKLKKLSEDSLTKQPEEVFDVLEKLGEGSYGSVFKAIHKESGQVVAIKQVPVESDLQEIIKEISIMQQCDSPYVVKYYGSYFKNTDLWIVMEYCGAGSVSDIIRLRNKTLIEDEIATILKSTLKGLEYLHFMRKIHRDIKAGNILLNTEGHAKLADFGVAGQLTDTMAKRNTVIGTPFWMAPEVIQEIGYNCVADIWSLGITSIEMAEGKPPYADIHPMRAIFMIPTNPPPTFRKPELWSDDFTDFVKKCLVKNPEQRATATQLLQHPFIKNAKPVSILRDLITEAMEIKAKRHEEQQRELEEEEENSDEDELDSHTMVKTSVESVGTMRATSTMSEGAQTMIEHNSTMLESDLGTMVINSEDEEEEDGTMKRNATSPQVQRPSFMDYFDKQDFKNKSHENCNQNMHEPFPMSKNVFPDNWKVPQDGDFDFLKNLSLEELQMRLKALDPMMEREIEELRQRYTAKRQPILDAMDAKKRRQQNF
As to the kind of experiment: Selectivity interaction (ActivX KiNativ screen (ex vivo kinase selectivity in human PBMCs)) EUB0001619a STK3. It counts as cell-based. To be noted: PBMC, at 1 µM.

Sequence of Casein kinase II subunit alpha' (Homo sapiens) (P19784 whole entry, looked up): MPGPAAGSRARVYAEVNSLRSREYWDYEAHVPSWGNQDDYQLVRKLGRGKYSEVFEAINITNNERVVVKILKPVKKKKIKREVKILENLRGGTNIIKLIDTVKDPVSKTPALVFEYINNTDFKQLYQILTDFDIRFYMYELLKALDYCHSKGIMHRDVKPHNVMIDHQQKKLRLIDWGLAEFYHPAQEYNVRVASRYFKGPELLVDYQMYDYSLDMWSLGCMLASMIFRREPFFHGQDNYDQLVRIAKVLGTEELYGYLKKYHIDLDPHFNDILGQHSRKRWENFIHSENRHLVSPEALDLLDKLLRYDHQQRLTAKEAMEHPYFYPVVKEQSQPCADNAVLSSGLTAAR
Sequence of Mitogen-activated protein kinase kinase kinase 20 (Homo sapiens) (Q9NYL2 2-800 limits assumed): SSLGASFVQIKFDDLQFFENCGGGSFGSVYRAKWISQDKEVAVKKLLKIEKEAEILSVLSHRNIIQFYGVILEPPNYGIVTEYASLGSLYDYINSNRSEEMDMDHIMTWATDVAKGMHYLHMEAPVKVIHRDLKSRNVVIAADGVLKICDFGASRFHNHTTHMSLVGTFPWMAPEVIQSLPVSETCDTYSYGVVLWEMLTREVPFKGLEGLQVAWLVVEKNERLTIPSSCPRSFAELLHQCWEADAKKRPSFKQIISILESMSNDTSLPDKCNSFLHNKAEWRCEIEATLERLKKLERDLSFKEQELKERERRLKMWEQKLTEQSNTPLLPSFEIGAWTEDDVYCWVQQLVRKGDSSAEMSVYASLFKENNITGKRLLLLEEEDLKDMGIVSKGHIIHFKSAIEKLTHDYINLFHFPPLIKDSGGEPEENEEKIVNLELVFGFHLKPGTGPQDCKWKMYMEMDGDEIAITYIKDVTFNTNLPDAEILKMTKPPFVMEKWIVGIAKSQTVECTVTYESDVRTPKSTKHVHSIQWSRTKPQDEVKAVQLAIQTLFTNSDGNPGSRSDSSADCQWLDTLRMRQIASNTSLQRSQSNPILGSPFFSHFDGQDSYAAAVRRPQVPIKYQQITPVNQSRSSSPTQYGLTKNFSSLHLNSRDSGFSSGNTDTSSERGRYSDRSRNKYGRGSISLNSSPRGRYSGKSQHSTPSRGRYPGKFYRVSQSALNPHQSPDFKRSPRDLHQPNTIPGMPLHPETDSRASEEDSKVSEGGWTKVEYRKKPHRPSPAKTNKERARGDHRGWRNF
Sequence of Tyrosine-protein kinase FRK (Homo sapiens) (P42685 whole entry): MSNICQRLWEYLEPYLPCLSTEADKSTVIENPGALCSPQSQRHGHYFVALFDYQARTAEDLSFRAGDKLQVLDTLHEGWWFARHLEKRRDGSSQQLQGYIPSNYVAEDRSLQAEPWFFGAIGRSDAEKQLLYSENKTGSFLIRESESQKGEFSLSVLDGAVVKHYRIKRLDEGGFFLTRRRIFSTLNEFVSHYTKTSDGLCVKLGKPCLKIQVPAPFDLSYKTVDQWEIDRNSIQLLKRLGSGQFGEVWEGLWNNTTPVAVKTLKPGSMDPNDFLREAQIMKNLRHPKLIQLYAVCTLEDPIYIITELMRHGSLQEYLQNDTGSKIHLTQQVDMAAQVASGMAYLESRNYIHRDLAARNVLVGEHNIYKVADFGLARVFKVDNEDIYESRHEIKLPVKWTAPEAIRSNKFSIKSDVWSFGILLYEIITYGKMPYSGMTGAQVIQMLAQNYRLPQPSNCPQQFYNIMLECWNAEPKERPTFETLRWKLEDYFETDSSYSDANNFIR
Sequence of Serine/threonine-protein kinase 35 (Homo sapiens) (Q8TDR2 whole entry): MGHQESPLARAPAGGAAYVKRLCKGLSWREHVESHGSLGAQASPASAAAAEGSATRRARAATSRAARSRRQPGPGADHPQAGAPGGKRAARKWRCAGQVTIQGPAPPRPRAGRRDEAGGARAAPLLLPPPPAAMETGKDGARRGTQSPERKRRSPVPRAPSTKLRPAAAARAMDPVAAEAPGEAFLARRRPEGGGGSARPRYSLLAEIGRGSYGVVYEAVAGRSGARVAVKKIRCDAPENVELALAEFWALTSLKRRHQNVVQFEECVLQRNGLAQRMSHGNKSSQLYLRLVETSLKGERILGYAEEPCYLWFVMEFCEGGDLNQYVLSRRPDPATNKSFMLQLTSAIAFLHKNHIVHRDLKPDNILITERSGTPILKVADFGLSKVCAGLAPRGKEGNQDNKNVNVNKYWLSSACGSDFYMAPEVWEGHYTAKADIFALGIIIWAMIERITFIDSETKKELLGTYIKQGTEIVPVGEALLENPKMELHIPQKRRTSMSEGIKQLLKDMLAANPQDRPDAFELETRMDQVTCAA
Sequence of Protein arginine N-methyltransferase 1 (Q99873 whole entry, looked up): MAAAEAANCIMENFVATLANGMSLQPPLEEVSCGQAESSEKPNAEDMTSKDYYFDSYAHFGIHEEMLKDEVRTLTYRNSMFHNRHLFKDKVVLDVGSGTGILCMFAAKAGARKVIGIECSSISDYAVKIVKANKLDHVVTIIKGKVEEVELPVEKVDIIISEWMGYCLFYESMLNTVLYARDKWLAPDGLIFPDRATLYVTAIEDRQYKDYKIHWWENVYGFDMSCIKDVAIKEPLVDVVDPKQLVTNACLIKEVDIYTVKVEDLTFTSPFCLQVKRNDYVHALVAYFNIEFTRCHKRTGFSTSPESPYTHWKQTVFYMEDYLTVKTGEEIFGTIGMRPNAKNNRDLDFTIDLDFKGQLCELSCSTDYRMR
Sequence of Mitotic checkpoint serine/threonine-protein kinase BUB1 (O43683 whole entry, looked up): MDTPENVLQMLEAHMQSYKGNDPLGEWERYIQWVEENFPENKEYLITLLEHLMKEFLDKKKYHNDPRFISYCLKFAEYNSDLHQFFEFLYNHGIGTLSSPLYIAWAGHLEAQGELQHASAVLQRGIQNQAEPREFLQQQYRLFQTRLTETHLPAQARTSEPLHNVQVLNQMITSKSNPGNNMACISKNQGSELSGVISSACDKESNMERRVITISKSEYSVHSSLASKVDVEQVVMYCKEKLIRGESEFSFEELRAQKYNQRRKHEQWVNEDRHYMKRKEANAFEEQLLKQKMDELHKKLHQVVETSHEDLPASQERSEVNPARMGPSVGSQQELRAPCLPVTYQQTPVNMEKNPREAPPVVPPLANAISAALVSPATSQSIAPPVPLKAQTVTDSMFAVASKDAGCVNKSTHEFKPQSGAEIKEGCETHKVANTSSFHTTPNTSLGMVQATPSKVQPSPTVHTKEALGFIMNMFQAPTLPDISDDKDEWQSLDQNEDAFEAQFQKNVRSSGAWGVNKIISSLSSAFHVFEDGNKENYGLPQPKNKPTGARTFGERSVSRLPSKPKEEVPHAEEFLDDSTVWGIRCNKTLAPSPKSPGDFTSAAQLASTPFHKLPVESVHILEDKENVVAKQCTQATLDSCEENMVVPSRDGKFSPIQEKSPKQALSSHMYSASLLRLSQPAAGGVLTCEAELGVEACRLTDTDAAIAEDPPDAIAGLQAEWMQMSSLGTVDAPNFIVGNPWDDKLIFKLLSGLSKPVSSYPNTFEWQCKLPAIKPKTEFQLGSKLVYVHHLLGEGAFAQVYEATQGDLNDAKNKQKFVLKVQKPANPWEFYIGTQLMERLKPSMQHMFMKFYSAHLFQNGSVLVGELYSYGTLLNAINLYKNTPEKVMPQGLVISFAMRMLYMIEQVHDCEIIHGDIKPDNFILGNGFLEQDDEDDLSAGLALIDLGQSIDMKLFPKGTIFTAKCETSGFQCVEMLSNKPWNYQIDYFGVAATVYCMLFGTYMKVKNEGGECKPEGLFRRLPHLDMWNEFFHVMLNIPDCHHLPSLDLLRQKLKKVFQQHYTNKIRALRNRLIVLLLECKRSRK

As to `C=CC(=O)Nc1cccc(C(=O)Nc2ccc(Nc3cc(-c4[nH]c(SC)nc4C)ccn3)cc2)c1`, the % of control in [1] (at 1 µM) worked out at 80%; in [1] (at 5 µM), 52%.
`Nc1cnc(N2CCc3cc(S(=O)(=O)Nc4c(F)cc(Cl)cc4F)cc(N4CCCC4=O)c32)nc1` [TP-020n]: the % of control in assay [2] came out at 62%.
In turn, `CCC(=O)N1CCN(c2ccc(-n3c(=O)ccc4cnc5ccc(-c6cnc7ccccc7c6)cc5c43)cc2C(F)(F)F)CC1` showed a % of control in [3] of 18%.
Turning to `COc1cc(Nc2nc(C)cc(-c3cnn4nc(OC)ccc34)n2)cc(C(F)(F)F)c1`, the % of control in [4] turned out to be 67%.
In turn, `O=C(NOC[C@H](O)CO)c1ccc(F)c(F)c1Nc1ccc(I)cc1F` displayed a % of control in assay [5] of 95%.
As for `CNCCN1CCC(c2cc(CN(C)C(=O)c3cccc(Oc4ccccc4)c3)ccn2)CC1`, the % activity in assay [6] was above 90%.
`COc1cc(N(C)c2ccnc3ccc(C(F)(F)F)cc23)cc(OC)c1OC` had a % binding in [7] of 91%.
Consider `N#Cc1cccc(-c2c[nH]c3ncnc(N4CCOCC4)c23)c1`, for which the % of control in [8] stood at 92%. Also, the % of inhibition in [9] amounted to 74%.

Values taken from ChEMBL document CHEMBL5465560, “Selectivity Literature for EUbOPEN Chemogenomic Library” (2024).
